Our source for the Activity values is ChEMBL document CHEMBL3045600, “Synthesis and Fungicidal Activities of Phenoxyphenyl Alkoxyiminoacetamide Derivatives” (J Pestic Sci, 1998).

Assay type in all cases: functional
For assay [1], the system named is Thanatephorus cucumeris. The assay is described as follows: Fungicidal activity against Thanatephorus cucumeris assessed as rice sheath blight disease control at 125 ppm foliar application for 24 hr before inoculation at 26 +- 2 measured after 5 days by preventive manner.
For assay [2], the system named is Pseudoperonospora cubensis. The assay can be described thus: Fungicidal activity against Pseudoperonospora cubensis assessed as cucumber downy mildew disease control at 7.8 ppm foliar application 24 hr before inoculation on upper surface of leaf by preventive manner.
Assay [3] has as its system Podosphaera fuliginea. The assay can be described thus: Fungicidal activity against Podosphaera fuliginea assessed as cucumber powdery mildew control under greenhouse at 125 ppm foliar application 24 hr before inoculation on upper surface of leaf at 23 +/- 2 degC by preventive manner.
Assay [4] concerns Podosphaera fuliginea. The assay is described as follows: Fungicidal activity against Podosphaera fuliginea assessed as cucumber powdery mildew control under greenhouse at 7.8 ppm foliar application 24 hr before inoculation on upper surface of leaf at 23 +/- 2 degC by preventive manner.
Assay [5] deals with Pseudoperonospora cubensis. The assay is described as follows: Fungicidal activity against Pseudoperonospora cubensis assessed as cucumber downy mildew disease control at 125 ppm foliar application 24 hr before inoculation on upper surface of leaf by preventive manner.
Assay [6] concerns Thanatephorus cucumeris. The assay is described as follows: Fungicidal activity against Thanatephorus cucumeris assessed as rice sheath blight disease control at 31.3 ppm foliar application for 24 hr before inoculation at 26 +- 2 measured after 5 days by preventive manner.
Assay [7] deals with Pseudoperonospora cubensis. The assay can be described thus: Fungicidal activity against Pseudoperonospora cubensis assessed as cucumber downy mildew disease control at 2 ppm foliar application 24 hr before inoculation on upper surface of leaf by preventive manner.
Assay [8] has as its system Pseudoperonospora cubensis. The assay can be described thus: Fungicidal activity against Pseudoperonospora cubensis assessed as cucumber downy mildew disease control at 31.3 ppm foliar application 24 hr before inoculation on upper surface of leaf by preventive manner.
Assay [9] relates to Thanatephorus cucumeris. The assay can be described thus: Fungicidal activity against Thanatephorus cucumeris assessed as rice sheath blight disease control at 2 ppm foliar application for 24 hr before inoculation at 26 +- 2 measured after 5 days by preventive manner.
The test system of assay [10] is Podosphaera fuliginea. The assay can be described thus: Fungicidal activity against Podosphaera fuliginea assessed as cucumber powdery mildew control under greenhouse at 31.3 ppm foliar application 24 hr before inoculation on upper surface of leaf at 23 +/- 2 degC by preventive manner.
The test system of assay [11] is Podosphaera fuliginea. The assay can be described thus: Fungicidal activity against Podosphaera fuliginea assessed as cucumber powdery mildew control under greenhouse at 2 ppm foliar application 24 hr before inoculation on upper surface of leaf at 23 +/- 2 degC by preventive manner.
In assay [12] the test system is Thanatephorus cucumeris. The assay is described as follows: Fungicidal activity against Thanatephorus cucumeris assessed as rice sheath blight disease control at 7.8 ppm foliar application for 24 hr before inoculation at 26 +- 2 measured after 5 days by preventive manner.

Turning to `CNC(=O)/C(=N/OC)c1ccc(C)cc1Oc1ccccc1`, the Activity (with Thanatephorus cucumeris [1]; in [2]; in the assay on Podosphaera fuliginea [3]; with Podosphaera fuliginea [4]; in assay [5]; in the assay on Thanatephorus cucumeris [6]) was 70% each time. For the same molecule, the Activity (in assay [7]; in [8]; with Thanatephorus cucumeris [9]; in the assay on Podosphaera fuliginea [10]; in the assay with Podosphaera fuliginea [11]; with Thanatephorus cucumeris [12]) was 70% each time.

As for `CO/N=C(/C(N)=O)c1ccccc1Oc1ccccc1`, the Activity (in the assay on Thanatephorus cucumeris [1]; in assay [2]; in [5]; in the assay with Thanatephorus cucumeris [6]; in assay [7]; in assay [8]) was less than 70% in each case. In addition, the Activity with Thanatephorus cucumeris [9] and in the assay with Thanatephorus cucumeris [12] was less than 70% in each case.

`CO/N=C(/C(=O)N(C)C)c1ccccc1Oc1ccccc1`: the Activity in the assay on Thanatephorus cucumeris [1] is recorded as 70%; in [2] it was less than 70%; in the assay with Podosphaera fuliginea [3] it was 70%; with Podosphaera fuliginea [4] it was 70%; in assay [5], less than 70%; in the assay with Thanatephorus cucumeris [6], 70%. For the same molecule, the Activity is less than 70% in assay [7]; less than 70% in [8]; 70% in the assay on Thanatephorus cucumeris [9]; 70% with Podosphaera fuliginea [10]; 70% with Podosphaera fuliginea [11]; 70% with Thanatephorus cucumeris [12].

Take `CCNC(=O)/C(=N/OC)c1ccccc1Oc1ccccc1`: the Activity is 70% in the assay with Thanatephorus cucumeris [1]; less than 70% in assay [2]; 70% with Podosphaera fuliginea [3]; 70% in the assay with Podosphaera fuliginea [4]; less than 70% in [5]; 70% in the assay on Thanatephorus cucumeris [6]. Further, the Activity was less than 70% in assay [7]; less than 70% in assay [8]; 70% in the assay with Thanatephorus cucumeris [9]; 70% with Podosphaera fuliginea [10]; 70% with Podosphaera fuliginea [11]; 70% in the assay with Thanatephorus cucumeris [12].

As to `CNC(=O)/C(=N/OC)c1cccc(Oc2ccccc2)c1`, the Activity in the assay on Thanatephorus cucumeris [1] is recorded as 70%; in assay [2], less than 70%; in the assay on Podosphaera fuliginea [3] it was 70%; with Podosphaera fuliginea [4] it was 70%; in assay [5] it was less than 70%; with Thanatephorus cucumeris [6], 70%. Besides, the Activity in [7] is recorded as less than 70%; in assay [8], less than 70%; in the assay on Thanatephorus cucumeris [9], 70%; in the assay with Podosphaera fuliginea [10], 70%; in the assay with Podosphaera fuliginea [11] it was 70%; in the assay with Thanatephorus cucumeris [12], 70%.

For the molecule `CNC(=O)/C(=N/OC)c1ccccc1OCc1ccccc1`, the Activity (in the assay on Thanatephorus cucumeris [1]; in assay [2]; with Podosphaera fuliginea [3]; in the assay with Podosphaera fuliginea [4]; in assay [5]; in the assay on Thanatephorus cucumeris [6]) was 70% in each case. The Activity (in [7]; in assay [8]; in the assay on Thanatephorus cucumeris [9]; with Podosphaera fuliginea [10]; in the assay with Podosphaera fuliginea [11]; in the assay on Thanatephorus cucumeris [12]) was 70% each time.

In the case of `CNC(=O)/C(=N/OC)c1ccccc1Sc1ccccc1`, the Activity (in the assay with Thanatephorus cucumeris [1]; in assay [2]; with Podosphaera fuliginea [3]; in the assay on Podosphaera fuliginea [4]; in [5]; with Thanatephorus cucumeris [6]) was 70% each time. The Activity (in assay [7]; in assay [8]; with Thanatephorus cucumeris [9]; with Podosphaera fuliginea [10]; in the assay with Podosphaera fuliginea [11]; in the assay on Thanatephorus cucumeris [12]) was 70% in each case.

As to `CNC(=O)/C(=N/OC)c1ccccc1SCc1ccccc1`, the Activity (in the assay with Thanatephorus cucumeris [1]; in assay [2]; in the assay on Podosphaera fuliginea [3]; in the assay on Podosphaera fuliginea [4]; in assay [5]; with Thanatephorus cucumeris [6]) was 70% in each case. The Activity (in assay [7]; in assay [8]; with Thanatephorus cucumeris [9]; in the assay with Podosphaera fuliginea [10]; in the assay on Podosphaera fuliginea [11]; in the assay on Thanatephorus cucumeris [12]) was 70% throughout.

Consider `CNC(=O)/C(=N/OC)c1ccccc1/C=C\c1ccccc1`, for which the Activity (in the assay with Thanatephorus cucumeris [1]; in [2]; in the assay on Podosphaera fuliginea [3]; with Podosphaera fuliginea [4]; in [5]; in the assay on Thanatephorus cucumeris [6]) was 70% each time. Further, the Activity (in [7]; in [8]; with Thanatephorus cucumeris [9]; with Podosphaera fuliginea [10]; in the assay with Podosphaera fuliginea [11]; in the assay on Thanatephorus cucumeris [12]) was 70% in each case.

As for `CNC(=O)/C(=N/OC)c1ccccc1C(=O)c1ccccc1`, the Activity (with Thanatephorus cucumeris [1]; in assay [2]; with Podosphaera fuliginea [3]; in the assay on Podosphaera fuliginea [4]; in assay [5]; in the assay with Thanatephorus cucumeris [6]) was less than 70% each time. Also, the Activity (in assay [7]; in assay [8]; in the assay with Thanatephorus cucumeris [9]; in the assay with Podosphaera fuliginea [10]; in the assay on Podosphaera fuliginea [11]; in the assay with Thanatephorus cucumeris [12]) was less than 70% in each case.

For `CNC(=O)/C(=N/OC)c1ccccc1NCc1ccccc1`, the Activity (with Thanatephorus cucumeris [1]; in assay [2]; with Podosphaera fuliginea [3]; in the assay on Podosphaera fuliginea [4]; in assay [5]; in the assay with Thanatephorus cucumeris [6]) was less than 70% throughout. Moreover, the Activity (in assay [7]; in assay [8]; in the assay on Thanatephorus cucumeris [9]; with Podosphaera fuliginea [10]; in the assay on Podosphaera fuliginea [11]; with Thanatephorus cucumeris [12]) was less than 70% each time.

Take `CNC(=O)/C(=N/OC)c1cc(F)ccc1Oc1ccccc1`: the Activity (in the assay on Thanatephorus cucumeris [1]; in [2]; in the assay on Podosphaera fuliginea [3]; in the assay on Podosphaera fuliginea [4]; in assay [5]; in the assay on Thanatephorus cucumeris [6]) was 70% each time. For the same molecule, the Activity (in assay [7]; in assay [8]; in the assay on Thanatephorus cucumeris [9]; in the assay with Podosphaera fuliginea [10]; with Podosphaera fuliginea [11]; in the assay with Thanatephorus cucumeris [12]) was 70% in each case.

Take `CNC(=O)/C(=N/OC)c1cc(C)ccc1Oc1ccccc1`: the Activity (in the assay on Thanatephorus cucumeris [1]; in [2]; in the assay with Podosphaera fuliginea [3]; in the assay on Podosphaera fuliginea [4]; in [5]; in the assay with Thanatephorus cucumeris [6]) was 70% in each case. The Activity (in assay [7]; in [8]; in the assay with Thanatephorus cucumeris [9]; in the assay with Podosphaera fuliginea [10]; in the assay on Podosphaera fuliginea [11]; with Thanatephorus cucumeris [12]) was 70% in each case.

For the molecule `CNC(=O)/C(=N/OC)c1cc(OC)ccc1Oc1ccccc1`, the Activity (in the assay on Thanatephorus cucumeris [1]; in assay [2]; with Podosphaera fuliginea [3]; in the assay with Podosphaera fuliginea [4]; in [5]; in the assay on Thanatephorus cucumeris [6]) was 70% in each case. Besides, the Activity (in [7]; in [8]; with Thanatephorus cucumeris [9]; in the assay with Podosphaera fuliginea [10]; in the assay with Podosphaera fuliginea [11]; with Thanatephorus cucumeris [12]) was 70% throughout.

`CNC(=O)/C(=N/OC)c1cc([N+](=O)[O-])ccc1Oc1ccccc1`: the Activity (with Thanatephorus cucumeris [1]; in [2]; with Podosphaera fuliginea [3]; in the assay with Podosphaera fuliginea [4]; in assay [5]; in the assay on Thanatephorus cucumeris [6]) was less than 70% throughout. Further, the Activity (in assay [7]; in assay [8]; in the assay on Thanatephorus cucumeris [9]; in the assay with Podosphaera fuliginea [10]; in the assay with Podosphaera fuliginea [11]; in the assay on Thanatephorus cucumeris [12]) was less than 70% in each case.

In the case of `CNC(=O)/C(=N/OC)c1c(OC)cccc1Oc1ccccc1`, the Activity (in the assay with Thanatephorus cucumeris [1]; in [2]; in the assay on Podosphaera fuliginea [3]; in the assay with Podosphaera fuliginea [4]; in assay [5]; with Thanatephorus cucumeris [6]) was less than 70% in each case. For the same molecule, the Activity (in assay [7]; in assay [8]; with Thanatephorus cucumeris [9]; in the assay with Podosphaera fuliginea [10]; with Podosphaera fuliginea [11]; in the assay with Thanatephorus cucumeris [12]) was less than 70% in each case.
